Measured values as given in patent publication US12377035B2, “Peptides for inhibiting cholinergic calcitonin gene-related peptide (CGRP) and acetylcholine (ACH) release or inhibiting sensitization-mediated by TRPV1-mediated excitability in sensory neurons and methods of use thereof” (AZIENDE CHIMICHE RIUNITE ANGELINI FRANCESCO—A.C.R.A.F. …, priority 2018, dated 2025).
Residues, ends and D or L forms follow the SMILES beside them. *: point of attachment. Palmitoyl = CCCCCCCCCCCCCCCC(=O)*

Legend:
Format in all cases: cell-based
[1] = tested on: human dermal fibroblasts (HDFa); assay: MTT cell viability assay on dermal fibroblasts; conditions: for % inhibition cell viability: HDFa, 24 hours
Description: (§1) This example evaluated effects of the peptides of invention on human epidermal keratinocytes and dermal fibroblasts. Cell viability was determined with the 3-(4,5-dimethyl-2-thiazolyl)-2,5-diphenyl-2H-tetrazolium bromide (MTT) assay. The MTT assay is a colorimetric reaction based on the capacity of the mitochondrial dehydrogenase enzyme to break and transform the tetrazolium rings of MTT. Epidermal keratinocytes (HEKa) were seeded in a previously coated 96 well-plate at 50-60% confluence in 100 μL of supplemented corresponding medium. Dermal fibroblasts (HDFa) were seeded in a 96 well-plate at 70% confluence in 100 μL supplemented medium. For both cell lines, 24 hours after seeding, medium was replaced by fresh supplemented medium containing peptides dissolved at concentration range between 0.1 and 200 μM. All test substances were incubated for 24 hours at 37° C. and 5% CO2. Afterwards, medium was replaced by 0.5 mg/ml of MTT solution for 4 hours in complete medium. Then, medium was carefully removed and 150 μL/well of DMSO were added to solubilize formazan crystals. Plate was protected from light, shaken for 60 seconds and optical density was measured at 570 nm with a reference filter of 620 nm. Table F details effects of peptides of invention on keratinocytes and fibroblasts cell viability expressed as percentage of inhibition.

[2] = tested on: human epidermal keratinocytes (HEKa); assay: MTT cell viability assay on epidermal keratinocytes; conditions: for % inhibition cell viability: HEKa, 24 hours
Description: as §1

[3] = tested on: acetylcholine release, human neuroblastoma cell line differentiated to cholinergic neuronal phenotype; assay: Inhibition of KCl-induced acetylcholine release in a neuroblastoma cell line (Amplex Red); conditions: for % Ach release inhibition: 50 mM KCl
Description: To determine the compound of the invention effects on acetylcholine release, a human neuroblastoma cell line (50.000 cells/well) was used. Cells were differentiated to cholinergic neuronal phenotype for 4 days. Then, cells were pre-incubated for 60 minutes with the compounds (between 0.1 and 100 μM) as acetyl- or palmitoyl-form and conjugated with trifluoroacetate (TFA) or acetate salt. Afterwards, acetylcholine release was induced by membrane depolarization evoked by 15 minutes incubation with 50 mM KCl. Acetylcholine level in supernatants was quantified by using Amplex® Red Acetylcholine Assay Kit (Thermofisher) following manufacturer's instructions. […] Fluorescence (Ex 530 nm/Em 590 nm) was measured in FluorStar equipment. Acetylcholine content was normalized to the total protein content using BCA assay (Pierce) following manufacturer's instructions. Fluorescence measurements were normalized to the maximum signal detected with KCl stimulation in vehicle treated cells. Vesicle exocytosis disruption by the compounds of the invention lead to a decrease of acetylcholine release (Table E).

[4] = tested on: CGRP induced-release on peptidergic sensory neurons (dorsal root ganglia); assay: Inhibition of capsaicin-induced CGRP release on cultured sensory neurons (CGRP EIA); conditions: 1 hour, 1 μM capsaicin 10 min
Description: The induction of the release of calcitonin-gene related peptide (CGRP) with capsaicin enables direct measurement of neuronal exocytosis (Meng J. et al., J. Cell. Sci. (2007) 15; 120(Pt 16):2864-74, and Meng J. et al., Mol. Neurobiol. (2014); 50(2):574-88).
The tested peptides were evaluated by measuring their capability of inhibiting CGRP induced-release on peptidergic sensory neurons. Dorsal root ganglia were seeded (50.000 cells/well) in a 96-well plate previously coated with poly-L-lysine and laminin. After 48 hours seeding, cells were incubated with Hank's Balanced salt solution containing peptides of invention at 20, 50 or 100 μM for 1 hour. Next, cells were stimulated for 10 min with 1 μM capsaicin at 37° C. Then, CGRP content was determined in supernatants using colorimetric based CGRP EIA (Spi-Bio Inc) following manufacturer's instructions. Absorbance measurements (405 nm) were standardized with regard to the maximum signal detected with capsaicin stimulation in vehicle treated cells. Inhibition values of CGRP release were calculated as percentages by considering maximum signal to capsaicin-induced release and minimum as non-stimulated cells. Table D details inhibition values of […] obtained for the peptides of invention.

Compound	% inhibition cell viability ([1]; 1 μM) [%]	% inhibition cell viability ([1]; 5 μM) [%]	% inhibition cell viability ([1]; 10 μM) [%]	% inhibition cell viability ([1]; 50 μM) [%]	% inhibition cell viability ([2]; 1 μM) [%]	% inhibition cell viability ([2]; 5 μM) [%]	% inhibition cell viability ([2]; 10 μM) [%]	% inhibition cell viability ([2]; 50 μM) [%]	% Ach release inhibition ([3]; Acetate salt, 0.1 μM)	% Ach release inhibition ([3]; TFA salt, 0.1 μM) [%]	% Ach release inhibition ([3]; TFA salt, 1 μM) [%]	% Ach release inhibition ([3]; TFA salt, 10 μM) [%]	% Ach release inhibition ([3]; TFA salt, 50 μM) [%]	% inhibition cell viability ([1]; 0.1 μM) [%]	% inhibition cell viability ([1]; 0.5 μM) [%]	% inhibition cell viability ([2]; 0.1 μM) [%]	% inhibition cell viability ([2]; 0.5 μM) [%]	% Ach release inhibition ([3]; TFA salt, 5 μM) [%]	% CGRP release inhibition ([4]; peptide 20 μM) [%]	% CGRP release inhibition ([4]; peptide 50 μM) [%]	other results
Ac-WEQEFLRR-NH2 [SEQ ID NO: 5 acetyl, WEQEFLRR]	9.3	10.0	12.1	10.0	−5.7	0.8	4.2	4.3	around 40%	19.0	22.0	52.8	51.5	–	–	–	–	–	–	–	% inhibition cell viability ([1]; 100 μM): 15.0%; % inhibition cell viability ([1]; 200 μM): 14.7%; effect on cell viability (in words) ([1]; dermal fibroblast, up to 200 μM): did not modify cell viability; % inhibition cell viability ([2]; 100 μM): 10.4%; % inhibition cell viability ([2]; 200 μM): 23.7%; effect on cell viability (in words) ([2]; human epidermal keratinocytes, up to 200 μM): did not modify cell viability; % Ach release inhibition ([3]; TFA salt, 100 μM): 81.6%
CCCCCCCCCCCCCCCC(=O)N[C@@H](CCSC)C(=O)N[C@@H](CCC(N)=O)C(=O)N[C@H](C(=O)N[C@@H](Cc1c[nH]c2ccccc12)C(=O)N[C@@H](CC(C)C)C(=O)N[C@@H](CCCNC(=N)N)C(=O)N[C@@H](CCSC)C(=O)N[C@@H](Cc1c[nH]c2ccccc12)C(=O)N[C@H](C(=O)N[C@@H](CC(=O)O)C(=O)N[C@@H](Cc1ccc(O)cc1)C(=O)N[C@@H](CCCNC(=N)N)C(=O)N[C@@H](C)C(=O)N[C@H](C(N)=O)[C@@H](C)O)[C@@H](C)CC)C(C)C [SEQ ID NO: 2 palmitoyl, MQVWLRMWIDYRAT] (Palmitoyl-MQVWLRMWIDYRAT-NH2)	45.8	47.3	47.1	35.3	25.6	36.9	36.5	32.5	–	–	–	−35.1	20.6	30.8	42.9	12.1	20.9	−46.1	35.5	53.9	–
CCCCCCCCCCCCCCCC(=O)N[C@@H](CC(C)C)C(=O)N[C@@H](CCCNC(=N)N)C(=O)N[C@H](C(=O)N[C@@H](CCC(N)=O)C(=O)N[C@@H](CCSC)C(=O)N[C@H](C(=O)N[C@@H](CC(N)=O)C(=O)N[C@@H](CCSC)C(=O)N[C@@H](Cc1ccccc1)C(=O)N[C@@H](CC(C)C)C(N)=O)C(C)C)C(C)C [SEQ ID NO: 4 palmitoyl, LRVQMVNMFL] (Palmitoyl-LRVQMVNMFL-NH2)	34.2	42.6	40.9	37.7	−7.6	7.0	18.0	34.2	–	–	–	–	83.0	15.2	26.9	−6.2	1.0	26.4	–	–	effect on keratinocyte viability (in words) ([2]; assessed below 50 μM): did not modify keratinocyte viability
CCCCCCCCCCCCCCCC(=O)N[C@@H](CCCNC(=N)N)C(=O)N[C@@H](CCCNC(=N)N)C(=O)N[C@H](C(=O)N[C@H](C(=O)N[C@@H](CC(C)C)C(=O)N[C@H](C(=O)N[C@@H](CC(N)=O)C(=O)N[C@@H](CC(N)=O)C(=O)N[C@H](C(=O)N[C@@H](CC(C)C)C(N)=O)[C@@H](C)CC)C(C)C)C(C)C)C(C)C [SEQ ID NO: 3 palmitoyl, RRVVLVNNIL] (Palmitoyl-RRVVLVNNIL-NH2)	8.7	25.7	27.2	24.3	11.7	9.9	22.4	24.8	57.0%	–	–	81.8	82.8	6.0	15.5	−3.8	−0.9	75.4	34.0	74.8	effect on fibroblast viability (in words) ([1]; at 1 µM or below): did not modify keratinocyte and fibroblast viability; effect on keratinocyte viability (in words) ([2]; at 1 µM or below): did not modify keratinocyte and fibroblast viability; % Ach release inhibition ([3]; Acetate salt, 1 μM): 92.5%; % Ach release inhibition ([3]; Acetate salt, 10 μM): 86.7%; activity on ACh release (in words) ([3]; lowest concentration tested 0.1 μM): active
CCCCCCCCCCCCCCCC(=O)N[C@@H](Cc1c[nH]c2ccccc12)C(=O)N[C@@H](CCC(=O)O)C(=O)N[C@@H](CCC(N)=O)C(=O)N[C@@H](CCC(=O)O)C(=O)N[C@@H](Cc1ccccc1)C(=O)N[C@@H](CC(C)C)C(=O)N[C@@H](CCCNC(=N)N)C(=O)N[C@@H](CCCNC(=N)N)C(N)=O [SEQ ID NO: 5 palmitoyl, WEQEFLRR] (Palmitoyl-WEQEFLRR-NH2)	−0.2	10.3	7.6	18.0	−2.9	−5.5	−6.3	−24.3	–	16.4	16.1	24.7	17.9	–	–	–	–	25.1	–	–	–
